# Measurements published in patent publication US20060035920A1, “Chk-1 inhibitors” (Millennium Pharmaceuticals, Inc., priority 2004, published 2006).
# Target: T1, Recombinant human Chk1 (GST-Chk1) (Homo sapiens, UniProt O14757)
# T1 construct: made in house; host or cells: insect cells (baculovirus, Bac-to-Bac system)
# T1 sequence (O14757 1-476): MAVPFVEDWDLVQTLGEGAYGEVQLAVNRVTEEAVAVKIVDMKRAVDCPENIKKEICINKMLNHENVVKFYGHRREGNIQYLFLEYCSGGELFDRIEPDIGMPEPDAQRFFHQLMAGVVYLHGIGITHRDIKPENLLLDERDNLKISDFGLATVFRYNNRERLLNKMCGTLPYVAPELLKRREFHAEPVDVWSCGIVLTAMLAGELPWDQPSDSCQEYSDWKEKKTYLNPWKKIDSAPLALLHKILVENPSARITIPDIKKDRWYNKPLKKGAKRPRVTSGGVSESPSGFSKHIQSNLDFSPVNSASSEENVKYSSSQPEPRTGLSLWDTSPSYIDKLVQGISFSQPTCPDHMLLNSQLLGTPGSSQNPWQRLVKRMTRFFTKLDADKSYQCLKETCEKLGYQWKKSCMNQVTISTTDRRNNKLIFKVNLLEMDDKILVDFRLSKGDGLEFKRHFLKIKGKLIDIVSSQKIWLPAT
# Experiment: Chk1 DELFIA Kinase Assay
# Format: biochemical
# Settings: GST-Chk1 in vitro kinase assay, bound given in μM
# Description: Recombinant human Chk1 was expressed as a fusion protein with glutathione S-transferase at the amino-terminus (GST-Chk1) using standard baculovirus vectors and (Bac-to-Bac®) insect cell expression system purchased from GIBCO™ Invitrogen. Recombinant protein expressed in insect cells was purified using glutathione sepharose (Amersham Biotech) using standard procedures described by the manufacturer.
# Chk1 DELFIA® Kinase Assay:
# Assays (25 μL) utilized 2 nM GST-Chk1 containing 10 mM Tris, pH 7.5, 20% glycerol, 50 mM sodium chloride (NaCl), 0.01% Surfact-Amps® 20, 1 μM peptide stubstrate (Biotin-GLYRSPSMPEN-amide) (SEQ ID NO: 2), 01.% BSA, 2 mM DTT, 4% DMSO, 600 μM ATP, 10 mM MgCl2 and reacted for 50 minutes at room temperature. Reactions were terminated with 100 μL of Stop buffer containing 1% BSA, 10 mM Tris, pH 8.0, 150 mM NaCl, 100 mM EDTA. Stopped reactions (100 μL) were transferred to 96 well NeutrAvidin plates (Pierce) to capture the biotin-peptide substrate during a 30 minute room temperature incubation. Wells were washed and reacted with 100 μL PerkinElmer Wallac Assay Buffer containing 21.5 ng/ml anti-phospho-Ser216-Cdc25c rabbit polyclonal antibody from Cell Signaling Technology (Beverly, Mass.) and 292 ng/ml europium labeled anti-rabbit-IgG for 1 hour at room temperature. Wells were washed and europium released from the bound antibody by addition of Enhancement Solution (100 μL) (PerkinElmer Wallac) and detected using a Perkin Elmer Wallac Envison™ 2100 multilabel reader using standard manufacturer settings.
row,Structure (SMILES),IC50 [µM]
1,"CCn1c(=O)c2c(C)[nH]nc2c2cc(-c3cnn(C)c3)ccc21 [Compound I-51, 5-ethyl-3-methyl-8-(1-methyl-1H-pyrazol-4-yl)-2,5-dihydro-4H-pyrazolo[4,3-c]quinolin-4-one]",< 1
2,"CCn1c(=O)c2c(C)[nH]nc2c2ccc(CCCN3CCCC3)cc21 [Compound I-42, 5-ethyl-3-methyl-7-(3-pyrrolidin-1-ylpropyl)-2,5-dihydro-4H-pyrazolo[4,3-c]quinolin-4-one]",< 1

# Second part, the molecule after the results:
row,IC50 [µM],Structure (SMILES)
1,< 1,"CCn1c(=O)c2c(C)[nH]nc2c2cc(-c3cn[nH]c3)ccc21 [Compound I-52, 5-ethyl-3-methyl-8-(1H-pyrazol-4-yl)-2,5-dihydro-4H-pyrazolo[4,3-c]quinolin-4-one]"
2,< 1,"CCn1c(=O)c2c(C)[nH]nc2c2cc(CCCN3CCCC3)ccc21 [Compound I-54, 5-ethyl-3-methyl-8-(3-pyrrolidin-1-ylpropyl)-2,5-dihydro-4H-pyrazolo[4,3-c]quinolin-4-one]"

# Same assay, conditions: GST-Chk1 kinase assay, bound given in nM
row,Structure (SMILES),IC50 [µM]
1,"Cc1[nH]nc2c1c(=O)n(CC(C)C)c1ccc(C#CCN3CCCC3)cc21 [Compound I-16, 5-isobutyl-3-methyl-8-(3-pyrrolidin-1-ylprop-1-yn-1-yl)-2,5-dihydro-4H-pyrazolo[4,3-c]quinolin-4-one]",< 0.5
2,"CCN(CC)Cc1ccc(-c2ccc3c(c2)c2n[nH]c(C)c2c(=O)n3CC)s1 [Compound I-46, 8-{5-[(diethylamino)methyl]-2-thienyl}-5-ethyl-3-methyl-2,5-dihydro-4H-pyrazolo[4,3-c]quinolin-4-one]",< 0.5
3,"C#Cc1ccc2c(c1)c1n[nH]c(C)c1c(=O)n2C [Compound I-22, 8-ethynyl-3,5-dimethyl-2,5-dihydro-4H-pyrazolo[4,3-c]quinolin-4-one]",< 0.5
4,"CCn1c(=O)c2c(C)[nH]nc2c2cc(C#CCN3CCC3)ccc21 [Compound I-31, 8-(3-azetidin-1-ylprop-1-yn-1-yl)-5-ethyl-3-methyl-2,5-dihydro-4H-pyrazolo[4,3-c]quinolin-4-one]",< 0.5
5,"CCn1c(=O)c2c(C)[nH]nc2c2cc(C#CC(C)(C)N)ccc21 [Compound I-15, 8-(3-amino-3-methylbut-1-yn-1-yl)-5-ethyl-3-methyl-2,5-dihydro-4H-pyrazolo[4,3-c]quinolin-4-one]",< 0.5
6,"CCn1c(=O)c2c(C)[nH]nc2c2cc(-c3ccc(CN4CCCC4)s3)ccc21 [Compound I-53, 5-ethyl-3-methyl-8-[5-(pyrrolidin-1-ylmethyl)-2-thienyl]-2,5-dihydro-4H-pyrazolo[4,3-c]quinolin-4-one]",< 0.5
7,"Cc1[nH]nc2c1c(=O)n(CCCO)c1ccc(C#CCN3CCCC3)cc21 [Compound I-18, 5-(3-hydroxypropyl)-3-methyl-8-(3-pyrrolidin-1-ylprop-1-yn-1-yl)-2,5-dihydro-4H-pyrazolo[4,3-c]quinolin-4-one]",< 0.5
8,"CCn1c(=O)c2c(C)[nH]nc2c2cc(C#CCN3[C@H](C)CC[C@H]3C)ccc21 (racemic) [Compound I-2, 8-{3-[(2S,5S)-2,5-dimethylpyrrolidin-1-yl]prop-1-yn-1-yl}-5-ethyl-3-methyl-2,5-dihydro-4H-pyrazolo[4,3-c]quinolin-4-one]",< 0.5
9,"CCn1c(=O)c2c(C)[nH]nc2c2cc(-c3cnn(C)c3)ccc21 [Compound I-51, 5-ethyl-3-methyl-8-(1-methyl-1H-pyrazol-4-yl)-2,5-dihydro-4H-pyrazolo[4,3-c]quinolin-4-one]",> 0.5
10,"CCn1c(=O)c2c(C)[nH]nc2c2ccc(CCCN3CCCC3)cc21 [Compound I-42, 5-ethyl-3-methyl-7-(3-pyrrolidin-1-ylpropyl)-2,5-dihydro-4H-pyrazolo[4,3-c]quinolin-4-one]",> 0.5
11,"CCn1c(=O)c2c(C)[nH]nc2c2cc(/C=C/CN3CCCC3)ccc21 [Compound I-25, 5-ethyl-3-methyl-8-[(1E)-3-pyrrolidin-1-ylprop-1-en-1-yl]-2,5-dihydro-4H-pyrazolo[4,3-c]quinolin-4-one]",< 0.5
12,"CCn1c(=O)c2c(C)[nH]nc2c2cc(C#CCN3[C@H](C)CC[C@@H]3C)ccc21 [Compound I-3, 8-{3-[(2R,5S)-2,5-dimethylpyrrolidin-1-yl]prop-1-yn-1-yl}-5-ethyl-3-methyl-2,5-dihydro-4H-pyrazolo[4,3-c]quinolin-4-one]",< 0.5
13,"Cc1[nH]nc2c1c(=O)n(C)c1ccc(C#CCO)cc21 [Compound I-24, 8-(3-hydroxyprop-1-yn-1-yl)-3,5-dimethyl-2,5-dihydro-4H-pyrazolo[4,3-c]quinolin-4-one]",< 0.5

# Continued, values first:
row,IC50 [µM],Structure (SMILES)
1,> 0.5,"CCn1c(=O)c2c(C)[nH]nc2c2cc(-c3cn[nH]c3)ccc21 [Compound I-52, 5-ethyl-3-methyl-8-(1H-pyrazol-4-yl)-2,5-dihydro-4H-pyrazolo[4,3-c]quinolin-4-one]"
2,< 0.5,"CCn1c(=O)c2c(C)[nH]nc2c2cc(/C=C/CN3[C@H](C)CC[C@@H]3C)ccc21 [Compound I-41, 8-{(1E)-3-[(2R,5S)-2,5-dimethylpyrrolidin-1-yl]prop-1-en-1-yl}-5-ethyl-3-methyl-2,5-dihydro-4H-pyrazolo[4,3-c]quinolin-4-one]"
3,< 0.5,"Cc1[nH]nc2c1c(=O)n(CC(F)(F)F)c1ccc(C#CCN3CCCC3)cc21 [Compound I-20, 3-methyl-8-(3-pyrrolidin-1-ylprop-1-yn-1-yl)-5-(2,2,2-trifluoroethyl)-2,5-dihydro-4H-pyrazolo[4,3-c]quinolin-4-one]"
4,< 0.5,"CCN(CC)C/C=C/c1ccc2c(c1)c1n[nH]c(C)c1c(=O)n2CC [Compound I-43, 8-[(1E)-3-(diethylamino)prop-1-en-1-yl]-5-ethyl-3-methyl-2,5-dihydro-4H-pyrazolo[4,3-c]quinolin-4-one]"
5,< 0.5,"CCn1c(=O)c2c(C)[nH]nc2c2cc(C#CCN3CCC(F)(F)C3)ccc21 [Compound I-30, 8-[3-(3,3-difluoropyrrolidin-1-yl)prop-1-yn-1-yl]-5-ethyl-3-methyl-2,5-dihydro-4H-pyrazolo[4,3-c]quinolin-4-one]"
6,< 0.5,"CCn1c(=O)c2c(C)[nH]nc2c2cc(-c3ccc(CN4CCCC4)o3)ccc21 [Compound I-55, 5-ethyl-3-methyl-8-[5-(pyrrolidin-1-ylmethyl)-2-furyl]-2,5-dihydro-4H-pyrazolo[4,3-c]quinolin-4-one]"
7,< 0.5,"CCn1c(=O)c2c(C)[nH]nc2c2cc(C#CCN3CCN(C)CC3)ccc21 [Compound I-8, 5-ethyl-3-methyl-8-[3-(4-methylpiperazin-1-yl)prop-1-yn-1-yl]-2,5-dihydro-4H-pyrazolo[4,3-c]quinolin-4-one]"
8,< 0.5,"CCn1c(=O)c2c(C)[nH]nc2c2cc(/C=C/CN(C(C)C)C(C)C)ccc21 [Compound I-44, 8-[(1E)-3-(diisopropylamino)prop-1-en-1-yl]-5-ethyl-3-methyl-2,5-dihydro-4H-pyrazolo[4,3-c]quinolin-4-one]"
9,< 0.5,"CCn1c(=O)c2c(C)[nH]nc2c2cc(C#CCN3CCCCC3)ccc21 [Compound I-9, 5-ethyl-3-methyl-8-(3-piperidin-1-ylprop-1-yn-1-yl)-2,5-dihydro-4H-pyrazolo[4,3-c]quinolin-4-one]"
10,< 0.5,"COCCn1c(=O)c2c(C)[nH]nc2c2cc(C#CCN3CCCC3)ccc21 [Compound I-5, 5-(2-methoxyethyl)-3-methyl-8-(3-pyrrolidin-1-ylprop-1-yn-1-yl)-2,5-dihydro-4H-pyrazolo[4,3-c]quinolin-4-one]"
11,< 0.5,"Cc1[nH]nc2c1c(=O)n(CC(F)F)c1ccc(C#CCN3CCCC3)cc21 [Compound I-4, 5-(2,2-difluoroethyl)-3-methyl-8-(3-pyrrolidin-1-ylprop-1-yn-1-yl)-2,5-dihydro-4H-pyrazolo[4,3-c]quinolin-4-one]"
12,< 0.5,"CCCn1c(=O)c2c(C)[nH]nc2c2cc(-c3ccc(CN(C)C)s3)ccc21 [Compound I-56, 8-{5-[(dimethylamino)methyl]-2-thienyl}-3-methyl-5-propyl-2,5-dihydro-4H-pyrazolo[4,3-c]quinolin-4-one]"
13,< 0.5,"CCn1c(=O)c2c(C)[nH]nc2c2cc(C#CCN3CCOCC3)ccc21 [Compound I-7, 5-ethyl-3-methyl-8-(3-morpholin-4-ylprop-1-yn-1-yl)-2,5-dihydro-4H-pyrazolo[4,3-c]quinolin-4-one]"
14,< 0.5,"CCN(CC)CC#Cc1ccc2c(c1)c1n[nH]c(C)c1c(=O)n2CC [Compound I-1, 8-[3-(diethylamino)prop-1-yn-1-yl]-5-ethyl-3-methyl-2,5-dihydro-4H-pyrazolo[4,3-c]quinolin-4-one]"
15,< 0.5,"Cc1[nH]nc2c1c(=O)n(CCO)c1ccc(C#CCN3CCCC3)cc21 [Compound I-17, 5-(2-hydroxyethyl)-3-methyl-8-(3-pyrrolidin-1-ylprop-1-yn-1-yl)-2,5-dihydro-4H-pyrazolo[4,3-c]quinolin-4-one]"
16,< 0.5,"CCCn1c(=O)c2c(C)[nH]nc2c2cc(C#CCN3CCCC3)ccc21 [Compound I-19, 3-methyl-5-propyl-8-(3-pyrrolidin-1-ylprop-1-yn-1-yl)-2,5-dihydro-4H-pyrazolo[4,3-c]quinolin-4-one]"
17,> 0.5,"CCn1c(=O)c2c(C)[nH]nc2c2cc(CCCN3CCCC3)ccc21 [Compound I-54, 5-ethyl-3-methyl-8-(3-pyrrolidin-1-ylpropyl)-2,5-dihydro-4H-pyrazolo[4,3-c]quinolin-4-one]"
